From US10351522B2, “Sulfonamide derivative and pharmaceutically acceptable acid addition salt thereof” (UNIVERSITY OF TSUKUBA, priority 2015, dated 2019)

Assays:
human OX1R = target: T1, human OX1R (Homo sapiens, UniProt O43613); assay: Agonist activity against OX1R: intracellular calcium (Fura-2AM, FDSS7000) in CHOOX1R cells; type: cell-based; conditions: relative to orexin-A as full agonist (100%)
T1 construct: expressed in transfected cells; host or cells: CHO (Chinese hamster ovary) cells, line CHOOX1R, co-expressing NFAT-luciferase
T1 sequence (O43613 1-425): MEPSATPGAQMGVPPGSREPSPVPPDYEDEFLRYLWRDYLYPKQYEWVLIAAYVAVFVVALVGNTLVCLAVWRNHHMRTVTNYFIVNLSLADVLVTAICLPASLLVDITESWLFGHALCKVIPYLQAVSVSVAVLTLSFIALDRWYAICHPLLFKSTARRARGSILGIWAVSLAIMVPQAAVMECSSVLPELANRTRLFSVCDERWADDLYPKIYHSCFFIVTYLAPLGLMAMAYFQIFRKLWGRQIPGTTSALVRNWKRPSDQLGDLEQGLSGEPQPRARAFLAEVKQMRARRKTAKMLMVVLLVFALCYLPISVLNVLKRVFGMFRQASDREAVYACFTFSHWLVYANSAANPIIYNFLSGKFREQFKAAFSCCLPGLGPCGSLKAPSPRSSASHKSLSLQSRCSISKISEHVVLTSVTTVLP
Method: (§1) Evaluation of Agonist Activity Against OX1R and OX2R
(§2) NAFT-luciferase gene and human OX1R gene were constitutively expressed in CHO cell, which is a cell line derived from Chinese hamster ovary to establish a cell line (CHOOX1R) and NAFT-luciferase gene and human OX2R gene were constitutively expressed in CHO cell to establish a cell line (CHOOX2R). The respective cells were seeded in a 96-well Multiplate at 10,000 cells/well and cultured in a 5% FBS (Thermo Scientific)-added DMEM medium (Sigma-Aldrich) for 48 hr. The medium was removed, an assay buffer (20 mM HEPES (Sigma-Aldrich), Hanks' balanced salt solution (Gibco), 0.1% BSA (Sigma-Aldrich), 2.5 mM probenecid acid (Wako Pure Chemical Industries, Ltd.)) (100 μL) containing 5 μM Fura-2AM (Cayman Chemical) was added, and the cells were incubated for 60 min. The buffer containing Fura-2AM was removed, and an assay buffer (75 μL) was added. An assay buffer (25 μL) containing a test compound was added thereto to start the reaction. Changes in the intracellular calcium ion concentration due to the reaction were measured by measuring the fluorescence intensity ratio by dual wavelength excitation at 340 and 380 nm, by using FDSS7000 (Hamamatsu Photonics K.K.). The test compound was dissolved in DMSO to 10 mM, and diluted with the assay buffer to a final concentration of 10^−7M to 10^−5M (final concentration of DMSO 1%).
(§3) (As used herein, Response in Table 21 to Table 27 is a value obtained by dividing the agonist activity value, when the test compound is evaluated with orexin-A as a full-agonist (maximum value of agonist activity: 100%), at 10 μM, 1.0 μM, 0.1 μM by the agonist activity value of orexin-A.)

human OX2R = target: T2, human OX2R (Homo sapiens, UniProt O43614); assay: Agonist activity against OX2R: intracellular calcium (Fura-2AM, FDSS7000) in CHOOX2R cells; type: cell-based; conditions: relative to orexin-A as full agonist (100%)
T2 construct: expressed in transfected cells; host or cells: CHO (Chinese hamster ovary) cells, line CHOOX2R, co-expressing NFAT-luciferase
T2 sequence (O43614 1-444): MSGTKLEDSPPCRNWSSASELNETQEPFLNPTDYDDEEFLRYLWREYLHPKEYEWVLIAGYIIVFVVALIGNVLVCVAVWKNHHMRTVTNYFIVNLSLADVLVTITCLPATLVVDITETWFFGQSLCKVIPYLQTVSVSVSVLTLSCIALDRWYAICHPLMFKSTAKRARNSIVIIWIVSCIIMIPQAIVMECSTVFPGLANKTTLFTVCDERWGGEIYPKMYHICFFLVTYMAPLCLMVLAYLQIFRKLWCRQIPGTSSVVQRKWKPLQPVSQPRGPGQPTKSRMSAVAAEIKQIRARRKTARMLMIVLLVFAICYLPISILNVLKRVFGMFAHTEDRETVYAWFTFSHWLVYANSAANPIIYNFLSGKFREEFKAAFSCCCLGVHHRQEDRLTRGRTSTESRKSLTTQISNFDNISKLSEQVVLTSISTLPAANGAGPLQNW
Method: as §1, §2, §3

Compound: Cc1ccc(-c2cccc(C(=O)N(C)C)c2)cc1S(=O)(=O)Nc1cccc(NC(=O)Nc2cccc(N(C)C)c2)c1 [Example 117]
- Response (%) OX1R (human OX1R; test compound 0.1 μM): <5%
- Response (%) OX1R (human OX1R; test compound 1.0 μM): <5%
- Response (%) OX1R (human OX1R; test compound 10 μM): <5%
- Response (%) OX2R (human OX2R; test compound 0.1 μM): <5%
- Response (%) OX2R (human OX2R; test compound 1.0 μM): 16%
- Response (%) OX2R (human OX2R; test compound 10 μM): 44%

Compound: COc1ccccc1Nc1c(Nc2cccc(NS(=O)(=O)c3cc(-c4cccc(C(=O)N(C)C)c4)ccc3OC)c2)c(=O)c1=O [Example 83]
- Response (%) OX1R (human OX1R; test compound 0.1 μM): <5%
- Response (%) OX1R (human OX1R; test compound 1.0 μM): <5%
- Response (%) OX1R (human OX1R; test compound 10 μM): 9%
- Response (%) OX2R (human OX2R; test compound 0.1 μM): <5%
- Response (%) OX2R (human OX2R; test compound 1.0 μM): <5%
- Response (%) OX2R (human OX2R; test compound 10 μM): 11%

Compound: COc1ccc(-c2cccc(C(=O)N(C)C)c2)cc1S(=O)(=O)Nc1cccc(N2CCN(c3ccccc3N(C)C)C2=O)c1 [Example 129]
- Response (%) OX1R (human OX1R; test compound 0.1 μM): <5%
- Response (%) OX1R (human OX1R; test compound 1.0 μM): 41%
- Response (%) OX1R (human OX1R; test compound 10 μM): 81%
- Response (%) OX2R (human OX2R; test compound 0.1 μM): 85%
- Response (%) OX2R (human OX2R; test compound 1.0 μM): 93%
- Response (%) OX2R (human OX2R; test compound 10 μM): 92%

Compound: COc1ccc(C(=O)NCc2ccccc2)cc1S(=O)(=O)Nc1cccc(NC(=O)Nc2ccc(N(C)C)cc2)c1 [Example 108, N-benzyl-3-(N-(3-(3-(4-(dimethylamino)phenyl)ureido)phenyl)sulfamoyl)-4-methoxybenzamide]
- Emax at 0.1 µM (human OX1R; test compound 0.1 μM, read-out: Response (%) OX1R): < 5%
- Emax at 1 µM (human OX1R; test compound 1.0 μM, read-out: Response (%) OX1R): < 5%
- Emax at 10 µM (human OX1R; test compound 10 μM, read-out: Response (%) OX1R): < 5%
- Response (%) OX2R (human OX2R; test compound 0.1 μM): 6%
- Response (%) OX2R (human OX2R; test compound 1.0 μM): 6%
- Response (%) OX2R (human OX2R; test compound 10 μM): 24%

Compound: COc1ccc(-c2cccc(C(=O)N(C)C)c2)cc1S(=O)(=O)Nc1cccc(NC(=O)c2cccc(C)c2)c1 [Example 15]
- Response (%) OX1R (human OX1R; 0.1 μM test compound): <5%
- Response (%) OX1R (human OX1R; 1.0 μM test compound): <5%
- Response (%) OX1R (human OX1R; 10 μM test compound): <5%
- Response (%) OX2R (human OX2R; 0.1 μM test compound): 12%
- Response (%) OX2R (human OX2R; 1.0 μM test compound): 81%
- Response (%) OX2R (human OX2R; 10 μM test compound): 114%

Compound: COc1ccc(C(=O)NCCCNC(=O)OC(C)(C)C)cc1S(=O)(=O)Nc1cccc(NC(=O)Nc2cccc(N(C)C)c2)c1 [Example 104]
- Response (%) OX1R (human OX1R; test compound 0.1 μM): 7%
- Response (%) OX1R (human OX1R; test compound 1.0 μM): 6%
- Response (%) OX1R (human OX1R; test compound 10 μM): 7%
- Response (%) OX2R (human OX2R; test compound 0.1 μM): 7%
- Response (%) OX2R (human OX2R; test compound 1.0 μM): 79%
- Response (%) OX2R (human OX2R; test compound 10 μM): 99%

Compound: COc1ccc(-c2cccc(C(=O)N(C)C)c2)cc1S(=O)(=O)Nc1cccc(NC(=O)Nc2ccccn2)c1 [Example 68]
- Response (%) OX1R (human OX1R; 0.1 μM test compound): 6%
- Response (%) OX1R (human OX1R; 1.0 μM test compound): 6%
- Response (%) OX1R (human OX1R; 10 μM test compound): 6%
- Response (%) OX2R (human OX2R; 0.1 μM test compound): 10%
- Response (%) OX2R (human OX2R; 1.0 μM test compound): 10%
- Response (%) OX2R (human OX2R; 10 μM test compound): 57%

Compound: CN(C)C(=O)c1cccc(-c2ccc(O)c(S(=O)(=O)Nc3cccc(NC(=O)Nc4cccc(N(C)C)c4)c3)c2)c1 [Example 115]
- Response (%) OX1R (human OX1R; test compound 0.1 μM): <5%
- Response (%) OX1R (human OX1R; test compound 1.0 μM): <5%
- Response (%) OX1R (human OX1R; test compound 10 μM): <5%
- Response (%) OX2R (human OX2R; test compound 0.1 μM): <5%
- Response (%) OX2R (human OX2R; test compound 1.0 μM): 8%
- Response (%) OX2R (human OX2R; test compound 10 μM): 62%

Compound: COc1ccc(-c2cccc(C(=O)N(C)C)c2)cc1S(=O)(=O)Nc1cccc(NC(=O)c2ccc3c(c2)OCO3)c1 [Example 5]
- Response (%) OX1R (human OX1R; 0.1 μM test compound): 8%
- Response (%) OX1R (human OX1R; 1.0 μM test compound): 8%
- Response (%) OX1R (human OX1R; 10 μM test compound): 7%
- Response (%) OX2R (human OX2R; 0.1 μM test compound): 10%
- Response (%) OX2R (human OX2R; 1.0 μM test compound): 8%
- Response (%) OX2R (human OX2R; 10 μM test compound): 19%

Compound: COc1ccc(-c2cccc(C(=O)N(C)C)c2)cc1S(=O)(=O)Nc1cccc(NC(=O)Nc2cccc([N+](=O)[O-])c2)c1 [Example 57]
- Response (%) OX1R (human OX1R; 0.1 μM test compound): <5%
- Response (%) OX1R (human OX1R; 1.0 μM test compound): <5%
- Response (%) OX1R (human OX1R; 10 μM test compound): <5%
- Response (%) OX2R (human OX2R; 0.1 μM test compound): 91%
- Response (%) OX2R (human OX2R; 1.0 μM test compound): 92%
- Response (%) OX2R (human OX2R; 10 μM test compound): 60%
